Data as given in patent publication US9713615B2, “Tetrahydroisoquinolin-2-yl-(quinazolin-4-yl)methanone compounds” (Rexahn Pharmaceuticals, Inc., priority 2013, dated 2017).

Assays:
A549 (lung) = assay: SRB growth inhibition assay, A549; assay type: cell-based; details: Homo sapiens, 96 hours incubation, read-out: Inhibition of cell growth (IC50, μM) A549
Excerpt: (§1) Cancer cells used in this study to determine the effect of tetrahydroisoquinolin-2-yl-(quinazolin-4-yl)methanone compounds were obtained from the following sources: Human OVCAR-3 (ovary), SK-MEL-28 (melanoma), MDA-MB-231 (breast), HeLa (cervix), PC3 (prostate), HepG2 (liver), A549 (lung), Caki-1 (kidney), HCT116 (colon) and PANC-1 (pancreas) from the American Type Culture Collection (ATCC) (Manassas, Va.); U251 (brain) from Riken (Japan); MKN-45 (stomach) from DSMZ (Germany). All cell lines except MDA-MB-231, HCT116, Caki-1 and PANC-1 were grown in RPMI1640 medium (Invitrogen, Carlsbad, Calif.) supplemented with 10% fetal bovine serum (“FBS”), 1 mM sodium pyruvate, 10 mM HEPES and 100 U/ml penicillin and 100 μg/ml streptomycin (“P/S”). MDA-MB-231, HCT116, Caki-1 and PANC-1 cells were maintained in Dulbecco's modified Eagle's medium (“DMEM”, Invitrogen) supplemented with 10% FBS, P/S, 10 mM HEPES and 2 mM L-glutamine. All cells were incubated at 37° C. under humidified 5% CO2.
(§2) The growth inhibition of the tetrahydroisoquinolin-2-yl-(quinazolin-4-yl)methanone compounds against a variety of human tumor cells was evaluated to study the relative importance of particular substituent groups on the compounds. The tetrahydroisoquinolin-2-yl-(quinazolin-4-yl)methanone compounds, prepared as described above, were tested with DMSO as a control.
(§3) The growth inhibition assay of representative tetrahydroisoquinolin-2-yl-(quinazolin-4-yl)methanone derivatives against human tumor cell lines was performed using the Sulforhodamine B (“SRB”) method (Skehan et al., J. National Cancer Institute, 82: 1107-1112 (1990)). Briefly, exponentially growing tumor cells were seeded into a 96-well plate at a density of 2-3×10^3 cells/well and treated with tetrahydroisoquinolin-2-yl-(quinazolin-4-yl)methanone compounds the next day. Triplicate wells were used for each treatment. The cells were incubated with the various compounds for 96 hours at 37° C. in a humidified 5% CO2 atmosphere. After 96-hour incubation, cells were fixed with 10% trichloroacetic acid (“TCA”), incubated for 1 hour at 4° C., and washed 3 times with tap water. Subsequently, cells were stained with 0.4% sulforhodamine B in 1% acetic acid for 30 minutes, washed 4 times with 1% acetic acid, and air-dried again After 5 minutes agitation in 10 mM Tris solution, the absorbance of each well was measured at 530 nm using Benchmark Plus Microplate reader (Bio-Rad Laboratories, Hercules, Calif.).
(§4) To translate the OD530 values into the number of live cells in each well, the OD530 values were compared to those on standard OD530-versus-cell number curves generated for each cell line. The percent survival was calculated using the formula: % Survival=live cell number [test]/live cell number [control]×100
(§5) The IC50 values were calculated by non-linear regression analysis.

PANC-1 (pancreas) = assay: SRB growth inhibition assay, PANC-1; assay type: cell-based, Human; details: Homo sapiens, PANC-1, 96 hours incubation, read-out: Inhibition of cell growth (IC50, μM) Panc-1
Excerpt: as §1, §2, §3, §4, §5
(§6) The compounds were screened against at […] including PANC-1, MDA-MB-231, HCT116 and Caki-1, at approximately 1 μM concentration. The inhibition of cell growth (IC50, μM) of some tetrahydroisoquinolin-2-yl-(quinazolin-4-yl)methanone compounds are shown in Table 2.

SK-MEL-28 (melanoma) = assay: SRB growth inhibition assay, SK-MEL-28; assay type: cell-based; details: Homo sapiens, 96 hours incubation, read-out: Inhibition of cell growth (IC50, μM) SK-MEL-28
Excerpt: as §1, §2, §3, §4, §5

PC3 (prostate) = assay: SRB growth inhibition assay, PC3; assay type: cell-based; details: Homo sapiens, 96 hours incubation, read-out: Inhibition of cell growth (IC50, μM) PC-3
Excerpt: as §1, §2, §3, §4, §5

HCT116 (colon) = assay: SRB growth inhibition assay, HCT116; assay type: cell-based, Human; details: Homo sapiens, HCT-116, 96 hours incubation, read-out: Inhibition of cell growth (IC50, μM) HCT116
Excerpt: as §1, §2, §3, §4, §5, §6

HeLa (cervix) = assay: SRB growth inhibition assay, HeLa; assay type: cell-based; details: Homo sapiens, 96 hours incubation, read-out: Inhibition of cell growth (IC50, μM) HeLa
Excerpt: as §1, §2, §3, §4, §5

OVCAR-3 (ovary) = assay: SRB growth inhibition assay, OVCAR-3; assay type: cell-based; details: Homo sapiens, 96 hours incubation, read-out: Inhibition of cell growth (IC50, μM) Ovcar3
Excerpt: as §1, §2, §3, §4, §5

Caki-1 (kidney) = assay: SRB growth inhibition assay, Caki-1; assay type: cell-based, Human; details: Homo sapiens, CAKI-1, 96 hours incubation, read-out: Inhibition of cell growth (IC50, μM) Caki-1
Excerpt: as §1, §2, §3, §4, §5, §6

HepG2 (liver) = assay: SRB growth inhibition assay, HepG2; assay type: cell-based; details: Homo sapiens, 96 hours incubation, read-out: Inhibition of cell growth (IC50, μM) HepG2
Excerpt: as §1, §2, §3, §4, §5

MKN-45 (stomach) = assay: SRB growth inhibition assay, MKN-45; assay type: cell-based; details: Homo sapiens, 96 hours incubation, read-out: Inhibition of cell growth (IC50, μM) MKN-45
Excerpt: as §1, §2, §3, §4, §5

MDA-MB-231 (breast) = assay: SRB growth inhibition assay, MDA-MB-231; assay type: cell-based, Human; details: Homo sapiens, MDA-MB-231, 96 hours incubation, read-out: Inhibition of cell growth (IC50, μM) MDA-MB-231
Excerpt: as §1, §2, §3, §4, §5, §6

U251 (brain) = assay: SRB growth inhibition assay, U251; assay type: cell-based; details: Homo sapiens, U-251, 96 hours incubation, read-out: Inhibition of cell growth (IC50, μM) U251
Excerpt: as §1, §2, §3, §4, §5

[1] = test system: MDA-MB-231 human breast adenocarcinoma cells; assay: Xenograft study in nude mice; assay type: in vivo; details: 50 mg/kg intraperitoneal three times per week from day 15; subcutaneous MDA-MB-231 xenograft, female NCr nu/nu mice
Experimental: Tumor growth inhibition by tetrahydroisoquinolin-2-yl-(quinazolin-4-yl)methanone compounds in an animal model was carried out by performing an […] xenograft study of nude mice was conducted with Compound 1. Suitable human cancer cell lines are those that have been tested previously for inhibition of cancer cell growth. The antitumor efficacy of Compound 1 was evaluated against subcutaneously injected tumor xenografts in nude mice. Tumor volume was measured after treatment with Compound 1.
A suspension of MDA-MB-231 cells (5×10^6 cells in […]) was injected subcutaneously into the right flank of CR female NCr nu/nu mice on day 0. A sufficient number of mice were injected with MDA-MB-231 cell suspension (0.2 ml/mouse) so that tumors in a volume range as narrow as possible were selected for the trial on the day of treatment initiation. Animals with tumors in the proper size range (100˜150 mm^3) were assigned to various treatment groups. Compound 1 was dissolved in the mixture of 15% dimethylacetamide and 30% Solutol® HS15 in water. Solvent alone served as control. […] To quantify tumor growth, three perpendicular diameters of the tumors were measured with calipers every 3-4 days, and the body weight of the mice was monitored for toxicity. The tumor volume was calculated using the formula: tumor volume (mm^3)=(width)×(length)×(height)×π/6.

SMILES | IC50 (A549 (lung)) [µM] | IC50 (PANC-1 (pancreas)) [µM] | IC50 (SK-MEL-28 (melanoma)) [µM] | IC50 (PC3 (prostate)) [µM] | IC50 (HCT116 (colon)) [µM] | IC50 (HeLa (cervix)) [µM] | IC50 (OVCAR-3 (ovary)) [µM] | IC50 (Caki-1 (kidney)) [µM] | IC50 (HepG2 (liver)) [µM] | IC50 (MKN-45 (stomach)) [µM] | IC50 (MDA-MB-231 (breast)) [µM] | IC50 (U251 (brain)) [µM] | inhibition of tumor growth (tumor volume) [1]
COc1ccc2c(c1O)CCN(C(=O)c1nc(-c3ccc(F)cc3)nc3ccccc13)C2 [Compound 1, 2-[[2-(4-fluorophenyl)quinazolin-4-yl]carbonyl]-5-hydroxy-6-methoxy-1,2,3,4-tetrahydroisoquinoline] | 0.14 | 0.057 | 0.063 | 0.076 | 0.069 | 0.063 | 0.06 | 0.056 | 0.12 | 0.058 | 0.06 | 0.067 | inhibition of tumor growth
COc1ccc2c(c1O)CCN(C(=O)c1nc(-c3cccc(F)c3)nc3ccccc13)C2 [Compound 42, 2-[[2-(3-fluorophenyl)quinazolin-4-yl]carbonyl]-5-hydroxy-6-methoxy-1,2,3,4-tetrahydroisoquinoline] | 0.21 | 0.12 | 0.098 | 0.15 | 0.14 | 0.12 | 0.15 | 0.082 | 0.2 | 0.051 | 0.12 | 0.11 | 
